Measured values reported in patent publication US20230413811A1 (priority 2020, published 2023).
Like-named read-outs stand apart in the source and are kept apart here.

How the values were obtained:
[1] = tested on: Phytophthora infestans strain Pi96; assay type: in vivo
[2] = Water solubility at different pH values; assay type: physicochemical; settings: for solubility: water
From the text: The results are compiled in the table here below:

[3] = 0.1 M carbonate buffer in water, aqueous buffer, pH 7, buffer 0.1M Carbonate
[4] = 0.1 M citrate buffer in water, aqueous buffer, pH 4, buffer 0.1M Citrate
[5] = 0.1 M glycine buffer in water, aqueous buffer, pH 10, buffer 0.1M Glycine

For `CCCCCCCCCCCCCCCCCC[S+](C)C.[Cl-]` [ODS-Cl, octadecyl dimethyl sulfonium chloride], the “Disease Severity Index (%)” value ([1]; 10 ppm, 3 dpi) was 10.3%, the “Disease Severity Index (%)” value ([1]; 10 ppm, 5 dpi) was 18.3% and the “Disease Severity Index (%)” value ([1]; 10 ppm, 7 dpi) was 39.7%. For the same compound, the “Disease Severity Index (%)” value ([1]; 10 ppm, 10 dpi) was 97.8%, the “Fungicide efficacy (%) at 10 dpi” value ([1]; 10 ppm, 10 dpi) was 0.0% and the “Disease Severity Index (%)” value ([1]; 50 ppm, 3 dpi) was 8.7%. The “Disease Severity Index (%)” value ([1]; 50 ppm, 5 dpi) was 15.6%, the “Disease Severity Index (%)” value ([1]; 50 ppm, 7 dpi) was 40.0% and the “Disease Severity Index (%)” value ([1]; 50 ppm, 10 dpi) was 89.4%. The “Fungicide efficacy (%) at 10 dpi” value ([1]; 50 ppm, 10 dpi) was 0.0%, the “Disease Severity Index (%)” value ([1]; 100 ppm, 3 dpi) was 5.5% and the “Disease Severity Index (%)” value ([1]; 100 ppm, 5 dpi) was 11.1%. For the same compound, the “Disease Severity Index (%)” value ([1]; 100 ppm, 7 dpi) was 27.8%, the “Disease Severity Index (%)” value ([1]; 100 ppm, 10 dpi) was 71.8% and the “Fungicide efficacy (%) at 10 dpi” value ([1]; 100 ppm, 10 dpi) was 12.5%. For the same compound, the “Disease Severity Index (%)” value ([1]; 500 ppm, 3 dpi) was 0.0%, the “Disease Severity Index (%)” value ([1]; 500 ppm, 5 dpi) was 0.0% and the “Disease Severity Index (%)” value ([1]; 500 ppm, 7 dpi) was 0.0%. The “Disease Severity Index (%)” value ([1]; 500 ppm, 10 dpi) was 0.0%, the “Fungicide efficacy (%) at 10 dpi” value ([1]; 500 ppm, 10 dpi) was 100.0% and the “Disease Severity Index (%)” value ([1]; 1000 ppm, 3 dpi) was 0.0%. For the same compound, the “Disease Severity Index (%)” value ([1]; 1000 ppm, 5 dpi) was 0.0%, the “Disease Severity Index (%)” value ([1]; 1000 ppm, 7 dpi) was 0.0% and the “Disease Severity Index (%)” value ([1]; 1000 ppm, 10 dpi) was 0.0%. For the same compound, the “Fungicide efficacy (%) at 10 dpi” value ([1]; 1000 ppm, 10 dpi) was 100.0%, the “control of the disease (late blight)” value ([1]; 1000 ppm, preventive treatment) was “full control” and the “dose from which efficient to protect potato leaves against late blight” value ([1]; preventive treatment, detached potato leaves) was ≥ 100 ppm. It also gave a solubility [2, 3] of 280 µg/mL, a solubility [2, 4] of 1320 µg/mL and a solubility [2, 5] of 940 µg/mL. For the same compound, the “solubility in water compared with octadecyl dimethyl sulfonium iodide” value ([2]; comparison chloride vs iodide) was “higher solubility in water”, the “pH at which the water solubility has a minimum” value ([2]; solubility increases below and above this pH) was ~7.0 and the solubility ([2]; pH 2.2, aqueous buffer) was 1650 µg/mL.

`CCCCCCCCCCCCCCCCCC[S+](C)C.[I-]` [ODS-I, octadecyl dimethyl sulfonium iodide, reference compound] gave a solubility [2, 3] of 80 µg/mL, a solubility [2, 4] of 290 µg/mL and a solubility [2, 5] of 30 µg/mL. For the same compound, the solubility ([2]; pH 5.5, aqueous buffer) was 120 µg/mL.
